This passage reports inhibition results from publication PMC7414866, “The Rnf complex is a Na^+ coupled respiratory enzyme in a fermenting bacterium, Thermotoga maritima” (Communications Biology, 2020).

The assay has as its target T1, Na+-F1FO ATP synthase (Thermotoga maritima, UniProt O50550+Q9X1U7+Q9X1V0).
T1 construct: gene atpE; native F1FO complex purified with DDM, no tags; 550 kDa on native PAGE; co-purified with Rnf; with ATP synthase gamma chain; ATP synthase subunit delta; ATP synthase epsilon chain; ATP synthase subunit a; ATP synthase subunit b
Put plainly: ATP hydrolysis (phosphate release) after preincubation. The class given is biochemical. The conditions noted are these: covalent; preincubation without Na+ 30 min room temperature, then 5 min 80 °C; 3 mM K2-ATP, pH 7.4; competes with Na+.

On to `C(=NC1CCCCC1)=NC1CCCCC1` [DCCD], for which the inhibition entry is “DCCD inhibited ATP hydrolysis but inhibition was relieved by addition of Na^+”.
